Results published in patent US9056840B2, “Coelenterazine analogues and coelenteramide analogues” (JNC Corporation, priority 2010, dated 2015).

What was measured:
[1] = biological target: T1, 19 kDa protein from Oplophorus luciferase (Oplophorus gracilirostris, UniProt Q9GV45); experiment: Substrate specificity and luminescence activity of the 19 kDa protein from Oplophorus luciferase; assay type: biochemical; conditions: measured for 60 seconds, coelenterazine = 100
T1 construct: made in house
Protocol: The 19 kDa protein from Oplophorus luciferase was purified by the method described in Inouye, S. and Sasaki, S., Protein Express. Purif. (2007) 56: 261-268 and provided for use.
(§1) After 1 μl of the 19 kDa protein (2.3 mg/ml) from Oplophorus luciferase containing 1 mM DTT was dissolved in 100 μl of 30 mM Tris-HCl (pH 7.6) containing 10 mM EDTA, 1 μl of a solution of coelenterazine or its analogue (1 μg/μl) in ethanol was added to the solution to start the luminescence reaction, and the luminescence activity was measured for 60 seconds on a luminometer luminescencer-PSN AB2200 (manufactured by Atto Co., Ltd.). The luminescence activity was determined by repeating the measurement described above 3 times and expressed in terms of the maximum luminescence intensity (Imax) of luminescence activity.

Gaussia luciferase = experiment: Substrate specificity and luminescence activity of Gaussia luciferase; assay type: biochemical; conditions: measured for 10 seconds, coelenterazine = 100
Protocol: Gaussia luciferase was purified by the method described in Japanese Patent Application KOKAI No. 2008-099669 and provided for use. After 1 μl of Gaussia luciferase (0.024 mg/ml) was dissolved in 100 μl of phosphate buffered saline (manufactured by Sigma Inc.) containing 0.01% Tween 20 (manufactured by Sigma Inc.) and 10 mM EDTA, 1 μl of a solution of coelenterazine or its analogue (1 μg/μl) in ethanol was mixed with the solution to start the luminescence reaction. The luminescence activity was measured for 10 seconds on a luminometer luminescencer-PSN AB2200 (manufactured by Atto Co., Ltd.). The luminescence activity was determined by repeating the measurement described above 3 times and expressed in terms of the maximum luminescence intensity (Imax) of luminescence activity.

Renilla luciferase = biological target: T2, Renilla luciferase (Renilla reniformis, UniProt P27652); experiment: Substrate specificity and luminescence activity of Renilla luciferase; assay type: biochemical; conditions: measured for 10 seconds, coelenterazine = 100
T2 construct: made in house
T2 sequence (P27652 1-311): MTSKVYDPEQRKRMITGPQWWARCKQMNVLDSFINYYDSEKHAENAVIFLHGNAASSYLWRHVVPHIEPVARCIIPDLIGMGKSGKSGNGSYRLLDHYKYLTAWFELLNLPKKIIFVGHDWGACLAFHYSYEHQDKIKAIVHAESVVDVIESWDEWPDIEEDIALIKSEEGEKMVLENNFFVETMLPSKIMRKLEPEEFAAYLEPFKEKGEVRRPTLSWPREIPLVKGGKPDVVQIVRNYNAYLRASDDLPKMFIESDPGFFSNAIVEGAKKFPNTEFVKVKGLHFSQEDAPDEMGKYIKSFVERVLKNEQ
Protocol: Renilla luciferase was purified by the method described in Inouye, S. & Shimomura, O. Biochem. Biophys. Res. Commun. (1997) 233: 349-353, and used for assay.
as §1, with “Renilla luciferase (0.45” for “the 19 kDa protein (2.3”, “mg/ml)” for “mg/ml) from Oplophorus luciferase containing 1 mM DTT”, “reaction. The” for “reaction, and the”, “10” for “60”, “measurement of luminescence activity” for “measurement”

[2] = Fluorescence spectra of coelenteramide analogue alone (absence of apoaequorin); assay type: physicochemical; conditions: analogue alone 8 μg/ml; for Coelenteramide (Buffer containing CaCl2) Fluorescence intensity (rlu) / Coelenteramide (Buffer containing CaCl2) Maximum fluorescence wavelength λmax (nm): 10 mM CaCl2 buffer pH 7.6, excitation 337 nm; for Coelenteramide (EDTA-containing buffer) Fluorescence intensity (rlu) / Coelenteramide (EDTA-containing buffer) Maximum fluorescence wavelength λmax (nm): 10 mM EDTA buffer pH 7.6, excitation 337 nm
Protocol: (§2) The fluorescence spectra were determined as follows. For coelenteramide analogue alone, the fluorescence was measured according to the procedures for semi-synthetic gFP and semi-synthetic BFP described in EXAMPLES 11 and 12, except for in the absence of apoaequorin, using 1 ml of 50 mM Tris-HCl (pH 7.6) containing 10 mM EDTA and 1 mM DTT or 1 ml of 50 mM Tris-HCl (pH 7.6) containing 10 mM CaCl2 and 1 mM DTT, in the final concentration of coelenteramide analogue adjusted to 8 μg/ml. The fluorescence spectra were measured at 25° C. in a quartz cell (10 mm light path length) using a Jasco FP-6500 spectrofluorometer (excitation wavelength: 337 nm, emission/excitation bandwidth: 3 nm; response: 0.5 sec, scan speed, 1000 nm/min).

apoaequorin [3] = biological target: T3, apoaequorin (Aequorea victoria, UniProt P07164); experiment: Fluorescence spectra of semi-synthetic gFP (coelenteramide analogue + apoaequorin, EDTA); assay type: physicochemical; conditions: 10 mM EDTA buffer, excitation 337 nm
T3 construct: purchased Chisso Corporation
T3 sequence (P07164 other isoform, or with tags, fused parts or gaps with the stated changes): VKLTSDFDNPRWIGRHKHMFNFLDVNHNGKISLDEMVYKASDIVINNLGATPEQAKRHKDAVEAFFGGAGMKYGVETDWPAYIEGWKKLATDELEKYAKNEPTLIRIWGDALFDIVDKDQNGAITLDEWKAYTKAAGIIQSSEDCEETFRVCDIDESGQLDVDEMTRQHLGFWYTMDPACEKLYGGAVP
Protocol: Semi-synthetic gFP was prepared from recombinant apoaequorin and coelenteramide analogues as follows. In 1 ml of 50 mM Tris-HC 1 (pH 7.6) containing 10 mM EDTA and 1 mM DTT, apoaequorin (0.2 mg) was mixed with 8 μl of a coelenteramide analogue (1 μg/μl in anhydrous methanol). The mixture was allowed to stand 4° C. for 16 hours to prepare semi-synthetic gFP-like protein (hereinafter sometimes simply referred to as “semi-synthetic gFP”).
as §2

apoaequorin [4] = biological target: T3, apoaequorin; experiment: Fluorescence spectra of semi-synthetic BFP (coelenteramide analogue + apoaequorin, CaCl2); assay type: physicochemical; conditions: 10 mM CaCl2 buffer, excitation 337 nm
Protocol: Semi-synthetic gFP was prepared from recombinant apoaequorin and coelenteramide analogues as follows. In 1 ml of 50 mM Tris-HC 1 (pH 7.6) containing 10 mM CaCl2 and 1 mM DTT, apoaequorin (0.2 mg) was mixed with 8 μl of a coelenteramide analogue (1 μg/μl in anhydrous methanol). The mixture was allowed to stand at 4° C. for 16 hours to prepare semi-synthetic BFP-like protein (hereinafter sometimes simply referred to as “semi-synthetic BFP”).
as §2

T1 sequence (Q9GV45 28-196): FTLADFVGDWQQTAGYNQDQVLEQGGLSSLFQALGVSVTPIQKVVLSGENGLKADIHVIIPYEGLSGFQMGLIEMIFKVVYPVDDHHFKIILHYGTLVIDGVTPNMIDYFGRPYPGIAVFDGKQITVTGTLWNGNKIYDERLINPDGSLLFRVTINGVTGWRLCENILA

Structure (SMILES) | Luminescence activity Imax (%) [1] | Luminescence activity Imax (%) (Gaussia luciferase) | Luminescence activity Imax (%) (Renilla luciferase) | Coelenteramide (Buffer containing CaCl2) Fluorescence intensity (rlu) [2] | Coelenteramide (Buffer containing CaCl2) Maximum fluorescence wavelength λmax (nm) [2] | Coelenteramide (EDTA-containing buffer) Fluorescence intensity (rlu) [2] | Coelenteramide (EDTA-containing buffer) Maximum fluorescence wavelength λmax (nm) [2] | Semi-synthetic gFP (EDTA-containing buffer) Fluorescence intensity (rlu) (apoaequorin [3]) | Semi-synthetic gFP (EDTA-containing buffer) Maximum fluorescence wavelength λmax (nm) (apoaequorin [3]) | Fluorescence intensity (apoaequorin [4]) | Semi-synthetic BFP (Buffer containing CaCl2) Maximum fluorescence wavelength λmax (nm) (apoaequorin [4])
O=c1c(Cc2ccc(O)cc2)nc2c(-c3ccsc3)[nH]c(-c3ccc(O)cc3)cn1-2 [Compound 3g, 2-(4-Hydroxybenzyl)-6-(4-hydroxyphenyl)-8-(thiophen-3-yl)imidazo[1,2-a]pyrazin-3(7H)-one] | 0.3% | 0.00% | 0.00% |  |  |  |  |  |  |  | 
O=c1c(Cc2ccc(O)cc2)nc2c(-c3csc4ccccc34)[nH]c(-c3ccc(O)cc3)cn1-2 [Compound 3i, 8-(Benzo[b]thiophen-3-yl)-2-(4-hydroxybenzyl)-6-(4-hydroxyphenyl)imidazo[1,2-a]pyrazin-3(7H)-one] | 0.09% | 0.00% | 0.00% |  |  |  |  |  |  |  | 
O=C(Cc1ccc(O)cc1)Nc1ncc(-c2ccc(O)cc2)nc1C#Cc1ccccc1 [Compound 4p, 2-(4-Hydroxyphenyl)-N-[5-(4-hydroxyphenyl)-3-(phenylethynyl)pyrazin-2-yl]acetamide] |  |  |  | 5.4 rlu | 484.5 nm | 5.3 rlu | 476.0 nm | 21.1 rlu | 523.0 nm | 70.0 rlu | 548.5 nm
O=C(Cc1ccc(O)cc1)Nc1ncc(-c2ccc(O)cc2)nc1CCc1ccccc1 [Compound 4r, 2-(4-Hydroxyphenyl)-N-[5-(4-hydroxyphenyl)-3-phenethylpyrazin-2-yl]acetamide] |  |  |  | 10.2 rlu | 483.0 nm | 10.3 rlu | 481.0 nm | 176.4 rlu | 468.0 nm | 159.9 rlu | 468.0 nm
O=C(Cc1ccc(O)cc1)Nc1cnc(-c2ccc(O)cc2)cn1 [Compound 4s, 2-(4-Hydroxyphenyl)-N-[5-(4-hydroxyphenyl)pyrazin-2-yl]acetamide] |  |  |  | 2.0 rlu | 468.5 nm | 1.9 rlu | 457.5 nm | 106.4 rlu | 460.0 nm | 22.1 rlu | 408.5 nm
Oc1ccc(NC(=S)Nc2ncc(-c3ccc(O)cc3)nc2Cc2ccccc2)cc1 [Compound 4v, 1-[3-Benzyl-5-(4-hydroxyphenyl)pyrazin-2-yl]-3-(4-hydroxyphenyl)thiourea] |  |  |  | 1.4 rlu | 466.0 nm | 1.4 rlu | 484.0 nm | 3.6 rlu | 491.0 nm | 3.3 rlu | 430.5 nm
CC(C(=O)Nc1ncc(-c2ccc(O)cc2)nc1Cc1ccccc1)c1ccc(O)cc1 (stereo not drawn) [Compound 4w, N-[3-Benzyl-5-(4-hydroxyphenyl)pyrazin-2-yl]-2-(4-hydroxyphenyl)propanamide] |  |  |  | 1.4 rlu | 450.5 nm | 1.3 rlu | 451.0 nm | 54.6 rlu | 487.0 nm | 181.4 rlu | 466.0 nm
O=C(Nc1ncc(-c2ccc(O)cc2)nc1Cc1ccccc1)c1cccc2cc(O)ccc12 [Compound 4z, N-[3-Benzyl-5-(4-hydroxyphenyl)pyrazin-2-yl]-6-hydroxy-1-naphthamide] |  |  |  | 13.2 rlu | 410.5 nm | 20.2 rlu | 409.5 nm | 246.3 rlu | 492.5 nm | 24.6 rlu | 487.0 nm
